Where a name gives a salt, the structure may show the parent alone. Read-outs that look alike come from different tables or passages of the source.
Target: T1, Human ATX protein (Homo sapiens, UniProt Q13822)
T1 construct: made in house
Assay: ATX biochemical assay (FRET, FS-3 substrate)
Details: FS-3 2 μM, ATX 1.0 μg/mL, 30 minutes preincubation, 2 hours reaction at room temperature
Method in brief: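 In-house human ATX (1.0 μg/mL final) was preincubated with compound for 30 min at room temperature in Tris buffer pH 7.4 with 1 mg/mL fatty acid free-BSA. FS-3 substrate (2 μM final) was then hydrolysed for 2 hours at room temperature, protected from light, and read as fluorescence at ex 485/em 538 nm.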

Row | IC50 (FRET assay, read-out: IC50) [nM] | SMILES | IC50 (IC50, FRET assay) [nM]
1 | 100 to 250 | CN1CCC(CC(=O)N2CCc3c(C(F)(F)F)nn(Cc4ccc(F)cc4)c3C2)C1 (stereo not shown) [Example 10-5, 1-(1-(4-Fluorobenzyl)-3-(trifluoromethyl)-4,5-dihydro-1H-pyrazolo[3,4-c]pyridin-6(7H)-yl)-2-(1-methylpyrrolidin-3-yl)ethanone] | –
2 | ≤ 100 | O=C(O)C1CCN(CC(=O)N2CCc3c(C(F)(F)F)nn(Cc4ccc(Cl)cc4F)c3C2)CC1 [Example 13-2, 1-(2-(1-(4-Chloro-2-fluorobenzyl)-3-(trifluoromethyl)-4,5-dihydro-1H-pyrazolo[3,4-c]pyridin-6(7H)-yl)-2-oxoethyl)piperidine-4-carboxylic acid] | –
3 | ≤ 100 | CCOC(=O)C1CCCN(CC(=O)N2CCc3c(C(F)(F)F)nn(Cc4ccc(Cl)cc4F)c3C2)C1 (stereo not shown) [Example 12-3, Ethyl 1-(2-(1-(4-chloro-2-fluorobenzyl)-3-(trifluoromethyl)-4,5-dihydro-1H-pyrazolo[3,4-c]pyridin-6(7H)-yl)-2-oxoethyl)piperidine-3-carboxylate] | –
4 | ≤ 100 | O=C(O)CC1CN(CC(=O)N2CCc3c(C(F)(F)F)nn(Cc4ccc(Cl)cc4F)c3C2)C1 [Example 13-22, 2-(1-(2-(1-(4-Chloro-2-fluorobenzyl)-3-(trifluoromethyl)-4,5-dihydro-1H-pyrazolo[3,4-c]pyridin-6(7H)-yl)-2-oxoethyl)azetidin-3-yl)acetic acid TFA salt] | –
5 | ≤ 100 | COC(=O)CC1CN(CC(=O)N2CCc3c(C(F)(F)F)nn(Cc4ccc(F)cc4)c3C2)C1 [Example 12-19, Methyl 2-(1-(2-(1-(4-fluorobenzyl)-3-(trifluoromethyl)-4,5-dihydro-1H-pyrazolo[3,4-c]pyridin-6(7H)-yl)-2-oxoethyl)azetidin-3-yl)acetate TFA salt] | –
6 | ≤ 100 | O=C(CC1CCN(c2ccncn2)CC1)N1CCc2c(C(F)(F)F)nn(Cc3ccc(F)cc3)c2C1 [Example 18-3, 1-(1-(4-Fluorobenzyl)-3-(trifluoromethyl)-4,5-dihydro-1H-pyrazolo[3,4-c]pyridin-6(7H)-yl)-2-(1-(pyrimidin-4-yl)piperidin-4-yl)ethanone TFA salt] | –
7 | ≤ 100 | CCOC(=O)C1CCCN(CC(=O)N2CCc3c(C(F)(F)F)nn(Cc4ccc(F)cc4)c3C2)CC1 (stereo not shown) [Example 12-16, Ethyl 1-(2-(1-(4-fluorobenzyl)-3-(trifluoromethyl)-4,5-dihydro-1H-pyrazolo[3,4-c]pyridin-6(7H)-yl)-2-oxoethyl)azepane-4-carboxylate TFA salt] | –
8 | ≤ 100 | O=C(CN[C@H]1CC[C@H](C(=O)O)CC1)N1CCc2c(C(F)(F)F)nn(Cc3ccc(F)cc3)c2C1 [Example 13-31, trans-4-(2-(1-(4-Fluorobenzyl)-3-(trifluoromethyl)-4,5-dihydro-1H-pyrazolo[3,4-c]pyridin-6(7H)-yl)-2-oxoethylamino)cyclohexanecarboxylic acid TFA salt] | –
9 | ≤ 100 | N#CC1CCN(CC(=O)N2CCc3c(C(F)(F)F)nn(Cc4ccc(F)cc4)c3C2)CC1 [Example 12-10, 1-(2-(1-(4-Fluorobenzyl)-3-(trifluoromethyl)-4,5-dihydro-1H-pyrazolo[3,4-c]pyridin-6(7H)-yl)-2-oxoethyl)piperidine-4-carbonitrile TFA salt] | –
10 | ≤ 100 | O=C(CC1CC(N2CCC2)C1)N1CCc2c(C(F)(F)F)nn(Cc3ccc(F)cc3)c2C1 (stereo not shown) [Example 22-1, 2-(3-(Azetidin-1-yl)cyclobutyl)-1-(1-(4-fluorobenzyl)-3-(trifluoromethyl)-4,5-dihydro-1H-pyrazolo[3,4-c]pyridin-6(7H)-yl)ethanone TFA salt] | –

Further lines, the molecule ahead of its results:

Row | SMILES | IC50 (FRET assay, read-out: IC50) [nM] | IC50 (IC50, FRET assay) [nM]
11 | O=C(CC1C2CC3CC1CC(C(=O)O)(C3)C2)N1CCc2c(C(F)(F)F)nn(Cc3ccc(F)cc3)c2C1 (stereo not shown) [Example 5-55] | ≤ 100 | –
12 | O=C(C1CN2CCC1CC2)N1CCc2c(C(F)(F)F)nn(Cc3ccc(F)cc3)c2C1 (stereo not shown) [Example 1-35, (1-(4-Fluorobenzyl)-3-(trifluoromethyl)-4,5-dihydro-1H-pyrazolo[3,4-c]pyridin-6(7H)-yl)(quinuclidin-3-yl)methanone TFA salt] | 100 to 250 | –
13 | O=C(O)C1CCC(CC(=O)N2CCc3c(C(F)(F)F)nn(Cc4ccc(Cl)cc4F)c3C2)C1 (mixture of isomers) [Example 6-6, 3-(2-(1-(4-Chloro-2-fluorobenzyl)-3-(trifluoromethyl)-4,5-dihydro-1H-pyrazolo[3,4-c]pyridin-6(7H)-yl)-2-oxoethyl)cyclopentanecarboxylic acid] | ≤ 100 | –
14 | CNC12CCC(C(=O)N3CCc4c(C(F)(F)F)nn(Cc5ccc(F)cc5)c4C3)(CC1)CC2 [Example 9-22, (1-(4-Fluorobenzyl)-3-(trifluoromethyl)-4,5-dihydro-1H-pyrazolo[3,4-c]pyridin-6(7H)-yl)(4-(methylamino)bicyclo[2.2.2]octan-1-yl)methanone TFA salt] | 250 to 500 | –
15 | C[C@]1(C(=O)O)C[C@@H](CC(=O)N2CCc3c(C(F)(F)F)nn(Cc4ccc(F)cc4)c3C2)C1 [Example 7-23, cis-3-(2-(1-(4-Fluorobenzyl)-3-(trifluoromethyl)-4,5-dihydro-1H-pyrazolo[3,4-c]pyridin-6(7H)-yl)-2-oxoethyl)-1-methylcyclobutanecarboxylic acid] | ≤ 100 | –
16 | O=C(C[C@H]1CC[C@H](C(=O)O)CC1)N1CCc2c(C(F)(F)F)nn(Cc3cccs3)c2C1 [Example 5-26, trans-4-(2-Oxo-2-(1-(thiophen-2-ylmethyl)-3-(trifluoromethyl)-4,5-dihydro-1H-pyrazolo[3,4-c]pyridin-6(7H)-yl)ethyl)cyclohexanecarboxylic acid] | ≤ 100 | –
17 | COc1ccc(Cn2nc(C(F)(F)F)c3c2CN(C(=O)C[C@H]2CC[C@H](C(=O)O)CC2)CC3)cc1 [Example 5-15, trans-4-(2-(1-(4-Methoxylbenzyl)-3-(trifluoromethyl)-4,5-dihydro-1H-pyrazolo[3,4-c]pyridin-6(7H)-yl)-2-oxoethyl)cyclohexanecarboxylic acid] | ≤ 100 | –
18 | COC(=O)C1CC2COCC(C1)N2CC(=O)N1CCc2c(C(F)(F)F)nn(Cc3ccc(F)cc3)c2C1 (stereo not shown) [Example 12-18, Methyl 9-(2-(1-(4-fluorobenzyl)-3-(trifluoromethyl)-4,5-dihydro-1H-pyrazolo[3,4-c]pyridin-6(7H)-yl)-2-oxoethyl)-3-oxa-9-azabicyclo[3.3.1]nonane-7-carboxylate] | – | ≤ 100
19 | O=C(CCc1nnn[nH]1)N1CCc2c(C(F)(F)F)nn(Cc3ccc(Cl)cc3F)c2C1 [Example 1-31, 1-(1-(4-Chloro-2-fluorobenzyl)-3-(trifluoromethyl)-4,5-dihydro-1H-pyrazolo[3,4-c]pyridin-6(7H)-yl)-3-(1H-tetrazol-5-yl)propan-1-one] | ≤ 100 | –
20 | O=C(O)C1CC(CC(=O)N2CCc3c(C(F)(F)F)nn(Cc4ccc(Cl)cc4F)c3C2)C1 (mixture of isomers) [Example 6-8, 3-(2-(1-(4-Chloro-2-fluorobenzyl)-3-(trifluoromethyl)-4,5-dihydro-1H-pyrazolo[3,4-c]pyridin-6(7H)-yl)-2-oxoethyl)cyclobutanecarboxylic acid] | ≤ 100 | –
21 | N[C@H]1CC[C@@H](CC(=O)N2CCc3c(C(F)(F)F)nn(Cc4ccc(Cl)cc4F)c3C2)CC1 [Example 9-17, 2-(cis-4-Aminocyclohexyl)-1-(1-(4-chloro-2-fluorobenzyl)-3-(trifluoromethyl)-4,5-dihydro-1H-pyrazolo[3,4-c]pyridin-6(7H)-yl)ethanone TFA salt] | ≤ 100 | –
22 | O=C(C[C@H]1CC[C@@H](C(=O)O)CC1)N1CCc2c(C(F)(F)F)nn(Cc3ccc(F)cc3F)c2C1 [Example 5-34, cis-4-(2-(1-(2,4-Difluorobenzyl)-3-(trifluoromethyl)-4,5-dihydro-1H-pyrazolo[3,4-c]pyridin-6(7H)-yl)-2-oxoethyl)cyclohexanecarboxylic acid] | ≤ 100 | –
23 | O=C(N1CCc2c(C(F)(F)F)nn(Cc3ccc(F)cc3)c2C1)C12CCN(CC1)CC2 [Example 1-36, (1-(4-Fluorobenzyl)-3-(trifluoromethyl)-4,5-dihydro-1H-pyrazolo[3,4-c]pyridin-6(7H)-yl)(quinuclidin-4-yl)methanone TFA salt] | 250 to 500 | –
24 | N[C@H]1CC[C@H](CC(=O)N2CCc3c(C(F)(F)F)nn(Cc4ccc(Cl)cc4F)c3C2)CC1 [Example 9-19, 2-(trans-4-aminocyclohexyl)-1-(1-(4-chloro-2-fluorobenzyl)-3-(trifluoromethyl)-4,5-dihydro-1H-pyrazolo[3,4-c]pyridin-6(7H)-yl)ethanone TFA salt] | ≤ 100 | –
25 | O=C(C[C@H]1CC[C@H](C(=O)O)CC1)N1CCc2c(C(F)(F)F)nn(Cc3ccccc3)c2C1 [Example 7-11, trans-4-(2-(1-Benzyl-3-(trifluoromethyl)-4,5-dihydro-1H-pyrazolo[3,4-c]pyridin-6(7H)-yl)-2-oxoethyl)cyclohexanecarboxylic acid] | ≤ 100 | –
26 | CCOC(=O)C1CCC(CC(=O)N2CCc3cnn(Cc4ccc(F)cc4)c3C2)CC1 (stereo not shown) [Example 1-17, Ethyl 4-(2-(1-(4-fluorobenzyl)-4,5-dihydro-1H-pyrazolo[3,4-c]pyridin-6(7H)-yl)-2-oxoethyl)cyclohexanecarboxylate] | ≤ 100 | –
27 | O=C(CC1CCNC(C(F)(F)F)C1)N1CCc2c(C(F)(F)F)nn(Cc3ccc(F)cc3)c2C1 (stereo not shown) [Example 9-13, 1-(1-(4-Fluorobenzyl)-3-(trifluoromethyl)-4,5-dihydro-1H-pyrazolo[3,4-c]pyridin-6(7H)-yl)-2-(2-(trifluoromethyl)piperidin-4-yl)ethanone TFA salt] | ≤ 100 | –
28 | CC(c1ccc(F)cc1)n1nc(C(F)(F)F)c2c1CN(C(=O)C[C@H]1CC[C@H](C(=O)O)CC1)CC2 (stereo partly drawn) [Example 5-19, trans-4-(2-(1-(1-(4-Fluorophenyl)ethyl)-3-(trifluoromethyl)-4,5-dihydro-1H-pyrazolo[3,4-c]pyridin-6(7H)-yl)-2-oxoethyl)cyclohexanecarboxylic acid] | ≤ 100 | –
